Values of other authors in patent US20260110035A1, “DNA REPAIR SIGNATURE AND PREDICTION OF RESPONSE FOLLOWING CANCER THERAPY” (priority 2022, published 2026).

Tested on: stage II/III TNBC
Conditions: BrighTNess; only carboplatin (Arm B) vs veliparib+carboplatin (Arm A), with paclitaxel followed by AC

SMILES: N.N.O=C([O-])C1(C(=O)[O-])CCC1.[Pt+2] [carboplatin]
- difference in pCR rates between Arm B and Arm A: no substantial difference
